Consider one compound from patent US20150050299A1, “METHODS FOR ENHANCING IMMUNE RESPONSE” (priority 2010, published 2015).

One assay addresses T1, human TLR3 (Homo sapiens, UniProt O15455).
T1 sequence (O15455 24-904): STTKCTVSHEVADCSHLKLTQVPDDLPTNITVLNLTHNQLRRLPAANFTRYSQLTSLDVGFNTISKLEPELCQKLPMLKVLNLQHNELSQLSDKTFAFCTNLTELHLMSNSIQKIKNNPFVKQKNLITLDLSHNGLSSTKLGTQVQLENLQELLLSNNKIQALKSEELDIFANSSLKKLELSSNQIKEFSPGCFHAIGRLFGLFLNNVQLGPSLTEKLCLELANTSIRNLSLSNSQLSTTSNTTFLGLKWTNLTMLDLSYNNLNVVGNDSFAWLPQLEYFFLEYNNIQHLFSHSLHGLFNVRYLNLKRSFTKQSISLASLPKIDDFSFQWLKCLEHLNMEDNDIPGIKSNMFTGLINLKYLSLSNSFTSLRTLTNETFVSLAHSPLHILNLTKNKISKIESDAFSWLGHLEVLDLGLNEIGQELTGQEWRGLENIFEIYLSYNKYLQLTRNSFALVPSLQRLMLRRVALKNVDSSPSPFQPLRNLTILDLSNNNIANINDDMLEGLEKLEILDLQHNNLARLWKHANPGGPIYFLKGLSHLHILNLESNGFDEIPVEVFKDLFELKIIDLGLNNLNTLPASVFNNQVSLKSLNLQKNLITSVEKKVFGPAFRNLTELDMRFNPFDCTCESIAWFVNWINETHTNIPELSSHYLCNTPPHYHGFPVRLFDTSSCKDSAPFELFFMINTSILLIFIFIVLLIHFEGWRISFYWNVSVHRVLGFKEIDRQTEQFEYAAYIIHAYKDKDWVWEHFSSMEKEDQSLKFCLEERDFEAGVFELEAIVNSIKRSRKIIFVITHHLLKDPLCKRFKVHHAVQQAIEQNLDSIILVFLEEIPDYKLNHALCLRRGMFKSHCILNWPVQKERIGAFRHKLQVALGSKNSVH
Put plainly: Toll-Like Receptor (TLR) screening assay, TLR3. The assay is classed as cell-based. Conditions: 10 μM.

Assay [1] has as its system squamous cell carcinomas (SCCs). The format is in vivo. As for the experimental part: The combination therapy of polyamine biosynthesis/uptake inhibition was tested against the K6/ODC transgenic mouse murine squamous cell carcinoma (SCC) model recently described.^98 The K6/ODC model was developed to assess whether ODC overexpression was a contributing cause, or an effect of malignant transformation. […] While most skin tumorigenesis models yielded benign squamous papillomas as the predominant tumor type, when the K6/ODC transgene was expressed on the FVB/N strain background, the majority of tumors that developed were aggressive squamous cell carcinomas. These SCCs appeared as early as 5 weeks after treatment and in high multiplicities (up to four tumors per mouse), making this a very efficient model for SCC induction. Using this model, we were thus able to conclude that over-expression of ODC is a sufficient condition for tumor promotion in mouse skin.^99
We conducted an in vivo anti-tumor trial of DFMO combined with either the D-C16-acyl Lys-spm conjugate AMXT 1501 (FIG. 4) or the L-C16-alkyl AMXT 1569 analog (FIG. 5) in the K6/ODC SCC model.
The concentration of AMXT 1501 was 14 μg/ml, or an average daily dose of ˜50-65 μg (equivalent to ˜3 mg/kg/d). […] It is expected that great improvements in the oral bioavailability of AMXT 1501 would result from insightful drug formulation.

Assay [2] deals with human toll-like receptors (TLR). Put plainly: Toll-like receptor test, overall statement. The format is cell-based. The note with it: 10 μM. The text has this: While the role of HMGB1 in cancer biology is complex, the influence of spermine on this danger signaling biomolecule is well established. […] It could be that the tumor's propensity to secrete higher concentrations of spermine allow them to hide from the immune system by negating HMGB1 ability to stimulate an immune response. Therefore, the balance between pro-immune effects of HMGB1 and the counter-immune effects of spermine mediated through this pathway may be shifted by using PBT.

The target of a further assay is human TLR4 (Homo sapiens, UniProt O00206+Q9Y6Y9). The assay is described as follows: Toll-Like Receptor (TLR) screening assay, TLR4. Conditions: 10 μM; control LPS. The assay is classed as cell-based.
Another assay deals with T2, human TLR9 (Homo sapiens, UniProt Q9NR96).
T2 sequence (Q9NR96 26-1032): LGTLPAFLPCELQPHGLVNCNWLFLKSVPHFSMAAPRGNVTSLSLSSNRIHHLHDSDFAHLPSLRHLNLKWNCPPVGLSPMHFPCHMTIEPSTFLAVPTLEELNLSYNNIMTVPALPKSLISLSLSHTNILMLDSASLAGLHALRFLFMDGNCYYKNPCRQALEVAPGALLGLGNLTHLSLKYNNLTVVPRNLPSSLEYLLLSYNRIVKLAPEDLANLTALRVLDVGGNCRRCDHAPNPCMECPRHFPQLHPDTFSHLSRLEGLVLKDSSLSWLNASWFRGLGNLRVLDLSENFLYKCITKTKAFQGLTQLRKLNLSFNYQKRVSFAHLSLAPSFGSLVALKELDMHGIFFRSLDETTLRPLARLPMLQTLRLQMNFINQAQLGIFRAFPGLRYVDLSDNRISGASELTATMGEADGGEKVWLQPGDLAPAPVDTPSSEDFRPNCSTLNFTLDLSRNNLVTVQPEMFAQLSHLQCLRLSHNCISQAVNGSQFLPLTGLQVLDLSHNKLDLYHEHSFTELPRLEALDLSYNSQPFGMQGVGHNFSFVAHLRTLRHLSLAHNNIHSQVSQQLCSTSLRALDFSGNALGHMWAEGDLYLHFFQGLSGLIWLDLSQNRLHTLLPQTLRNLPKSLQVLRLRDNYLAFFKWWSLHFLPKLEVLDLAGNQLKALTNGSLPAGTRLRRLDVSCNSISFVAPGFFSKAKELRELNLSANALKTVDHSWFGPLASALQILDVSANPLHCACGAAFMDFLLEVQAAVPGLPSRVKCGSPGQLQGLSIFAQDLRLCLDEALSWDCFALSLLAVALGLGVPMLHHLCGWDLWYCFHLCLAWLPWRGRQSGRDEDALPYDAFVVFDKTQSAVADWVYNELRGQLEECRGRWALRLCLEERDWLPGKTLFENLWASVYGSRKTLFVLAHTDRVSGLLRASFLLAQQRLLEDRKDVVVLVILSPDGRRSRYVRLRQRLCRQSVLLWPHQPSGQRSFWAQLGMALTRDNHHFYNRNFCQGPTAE
Put plainly: Toll-Like Receptor (TLR) screening assay, TLR9. The format is cell-based. Conditions: 10 μM.

Chain of human TLR4 (O00206 24-839): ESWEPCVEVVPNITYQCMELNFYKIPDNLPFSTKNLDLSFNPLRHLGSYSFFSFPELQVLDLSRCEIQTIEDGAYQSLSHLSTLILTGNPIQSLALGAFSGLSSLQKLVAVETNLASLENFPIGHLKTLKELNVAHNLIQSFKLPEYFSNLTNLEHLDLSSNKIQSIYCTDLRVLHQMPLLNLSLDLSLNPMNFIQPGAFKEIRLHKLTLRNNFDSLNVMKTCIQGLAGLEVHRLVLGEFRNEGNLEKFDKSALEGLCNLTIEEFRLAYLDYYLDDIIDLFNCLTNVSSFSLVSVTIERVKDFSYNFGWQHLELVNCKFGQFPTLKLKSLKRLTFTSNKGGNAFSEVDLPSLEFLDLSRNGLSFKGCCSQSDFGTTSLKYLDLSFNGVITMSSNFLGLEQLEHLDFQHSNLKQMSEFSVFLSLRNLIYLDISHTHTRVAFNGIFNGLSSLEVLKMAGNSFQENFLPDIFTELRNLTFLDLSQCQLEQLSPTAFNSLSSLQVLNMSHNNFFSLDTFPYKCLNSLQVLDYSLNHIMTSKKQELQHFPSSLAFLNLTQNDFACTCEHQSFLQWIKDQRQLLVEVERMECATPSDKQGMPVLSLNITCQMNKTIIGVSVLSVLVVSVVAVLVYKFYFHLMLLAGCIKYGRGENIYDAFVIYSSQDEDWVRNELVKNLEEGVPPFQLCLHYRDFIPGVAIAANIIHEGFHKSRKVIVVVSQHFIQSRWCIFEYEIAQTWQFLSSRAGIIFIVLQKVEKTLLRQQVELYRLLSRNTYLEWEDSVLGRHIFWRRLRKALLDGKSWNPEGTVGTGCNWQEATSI
Chain of human TLR4 (Q9Y6Y9 17-160 limits assumed): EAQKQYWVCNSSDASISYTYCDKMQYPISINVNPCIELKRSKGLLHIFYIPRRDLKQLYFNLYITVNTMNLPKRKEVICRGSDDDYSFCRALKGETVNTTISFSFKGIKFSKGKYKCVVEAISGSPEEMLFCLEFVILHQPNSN

With `CCCCCCCCCCCCCCCC(=O)NCCCC[C@@H](N)C(=O)NCCCNCCCCNCCCN` [AMXT 1501, D-Lys(C16acyl)-Spm], the “activity on TLR3” value at human TLR3 is “no significant activity”. The “anti-tumor response to single agent” value in assay [1] (agent alone) is recorded as “did not reduce tumor growth”. Besides, the “potency to inhibit tumor growth in combination with DFMO, AMXT 1501 versus AMXT 1569” value in assay [1] (combined with DFMO) is listed as “slightly better results”. The “stimulatory effect on human toll-like receptors” value in assay [2] is “no significant stimulatory effect”. Moreover, the “stimulatory effect on TLR4” value at human TLR4 is reported as 16 % of control. For the same compound, on human TLR9, the “activity on TLR9” value was “no significant activity”.
